# Data as given in patent publication US20250320213A1, “Nitrogen-Containing Heterocyclic Compounds” (Pfizer Inc., priority 2024, published 2025).
# How the values were obtained:
# STAT6 = target: T1, STAT6 (Homo sapiens, UniProt P42226); test: STAT6 Reporter Luciferase Assay (IL-13 stimulated HaCaT keratinocyte NanoLuc reporter cells); assay type: cell-based; details: IL-13 stimulated HaCaT STAT6 NanoLuc reporter cells; read-out: Reporter EC50
# T1 construct: stably transfected HaCaT keratinocyte cell line, which expresses NanoLuc luciferase reporter gene under the transcriptional control of the STAT6 responsive promoter; endogenous in cells; host or cells: HaCaT keratinocyte reporter cell line (stably transfected with a NanoLuc reporter)
# T1 sequence (P42226 1-847): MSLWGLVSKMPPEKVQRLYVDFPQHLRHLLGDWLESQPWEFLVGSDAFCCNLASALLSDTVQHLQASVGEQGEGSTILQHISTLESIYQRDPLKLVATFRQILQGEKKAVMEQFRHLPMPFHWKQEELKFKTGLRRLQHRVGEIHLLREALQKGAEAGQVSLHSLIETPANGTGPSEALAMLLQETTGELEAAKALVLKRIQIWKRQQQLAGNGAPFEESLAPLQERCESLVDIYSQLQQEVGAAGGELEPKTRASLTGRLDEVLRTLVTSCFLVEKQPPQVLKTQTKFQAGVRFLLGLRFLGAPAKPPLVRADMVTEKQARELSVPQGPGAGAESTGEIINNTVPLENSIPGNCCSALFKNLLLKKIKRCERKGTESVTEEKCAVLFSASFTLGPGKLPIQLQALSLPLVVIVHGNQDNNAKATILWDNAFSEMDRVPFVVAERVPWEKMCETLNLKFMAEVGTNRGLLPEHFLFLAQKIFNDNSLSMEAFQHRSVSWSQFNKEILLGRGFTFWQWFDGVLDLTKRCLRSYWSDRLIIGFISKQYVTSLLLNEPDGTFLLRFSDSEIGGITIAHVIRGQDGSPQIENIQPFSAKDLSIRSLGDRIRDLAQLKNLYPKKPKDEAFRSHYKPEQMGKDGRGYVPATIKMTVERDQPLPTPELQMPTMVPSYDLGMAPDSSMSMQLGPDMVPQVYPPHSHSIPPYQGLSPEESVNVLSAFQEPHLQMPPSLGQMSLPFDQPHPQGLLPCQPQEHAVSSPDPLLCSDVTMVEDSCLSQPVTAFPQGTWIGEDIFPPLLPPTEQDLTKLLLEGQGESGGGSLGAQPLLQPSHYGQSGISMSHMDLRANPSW
# Outline: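 Luminescence from a NanoLuc reporter driven by the STAT6-responsive IL-13Ra2 promoter in HaCaT keratinocytes serves as the read-out. Compounds are given 2 h before a 4 h stimulation with 0.12 nM IL-13.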
# [1] = tested on: CCL17 secretion in peripheral human whole blood; test: Human Whole Blood (HWB) CCL17 TR-FRET Assay (IL-13 stimulated CCL17 secretion); assay type: cell-based; details: Homo sapiens, 48 h, human whole blood, 10 ng/mL IL13, 48 hours
# Outline: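 Measured here: CCL17 in serum by TR-FRET (665/615 nm) after overnight (16 h) room-temperature detection. The blood, heparinized and compound-treated for 2 h, received IL-13 at 10 ng/mL final and was cultured 48 h at 37 °C.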
EC50 (STAT6) [nM],IC50 [1] [nM],SMILES
1,14,"CC(C)n1nc(C(=O)NCc2ccc(NC(=O)N3CCC4(CC3)CCN4C)c(F)c2)c2c1[C@@H](C)CN(c1ccc(C(=O)N(C)C)cn1)C2 [Example 602, (S)-5-(5-(dimethylcarbamoyl)pyridin-2-yl)-N-(3-fluoro-4-(1-methyl-1,7-diazaspiro[3.5]nonane-7-carboxamido)benzyl)-1-isopropyl-7-methyl-4,5,6,7-tetrahydro-1H-pyrazolo[4,3-c]pyridine-3-carboxamide]"
3,31,"CC(C)n1nc(C(=O)NCc2ccc(NC(=O)N3CC4(CCN(C)C4)C3)c(F)c2)c2c1[C@@H](C)CN(c1ccc(C(=O)N(C)C)cn1)C2 [Example 603, (S)-5-(5-(dimethylcarbamoyl)pyridin-2-yl)-N-(3-fluoro-4-(6-methyl-2,6-diazaspiro[3.4]octane-2-carboxamido)benzyl)-1-isopropyl-7-methyl-4,5,6,7-tetrahydro-1H-pyrazolo[4,3-c]pyridine-3-carboxamide]"
4,29,"CC(C)n1nc(C(=O)NCc2ccc(NC(=O)N3CC4(CN(C)C4)C3)c(F)c2)c2c1[C@@H](C)CN(c1ccc(C(=O)N(C)C)cn1)C2 [Example 604, (S)-5-(5-(dimethylcarbamoyl)pyridin-2-yl)-N-(3-fluoro-4-(6-methyl-2,6-diazaspiro[3.3]heptane-2-carboxamido)benzyl)-1-isopropyl-7-methyl-4,5,6,7-tetrahydro-1H-pyrazolo[4,3-c]pyridine-3-carboxamide]"
4,37,"CNC(=O)c1ccc(CNC(=O)c2nn(C(C)C)c3c2CN(c2ccc(C(=O)N(C)C)cc2)C[C@@H]3C)cc1 [Example 605, (S)-5-(4-(dimethylcarbamoyl)phenyl)-1-isopropyl-7-methyl-N-(4-(methylcarbamoyl)benzyl)-4,5,6,7-tetrahydro-1H-pyrazolo[4,3-c]pyridine-3-carboxamide]"
1,9,"CC(C)n1nc(C(=O)NCc2ccc(NC(=O)N3CCN(C)CC3)c(F)c2)c2c1[C@@H](C)CN(c1ccc(C(=O)N(C)C)cn1)C2 [Example 606, (S)-5-(5-(dimethylcarbamoyl)pyridin-2-yl)-N-(3-fluoro-4-(4-methylpiperazine-1-carboxamido)benzyl)-1-isopropyl-7-methyl-4,5,6,7-tetrahydro-1H-pyrazolo[4,3-c]pyridine-3-carboxamide]"
2,21,"CC(C)n1nc(C(=O)NCc2ccc(NC(=O)N3CCCN(C)CC3)c(F)c2)c2c1[C@@H](C)CN(c1ccc(C(=O)N(C)C)cn1)C2 [Example 607, (S)-5-(5-(dimethylcarbamoyl)pyridin-2-yl)-N-(3-fluoro-4-(4-methyl-1,4-diazepane-1-carboxamido)benzyl)-1-isopropyl-7-methyl-4,5,6,7-tetrahydro-1H-pyrazolo[4,3-c]pyridine-3-carboxamide]"
1,16,"CC(C)n1nc(C(=O)NCc2ccc(NC(=O)N3CC4(CCN(C)CC4)C3)c(F)c2)c2c1[C@@H](C)CN(c1ccc(C(=O)N(C)C)cn1)C2 [Example 608, (S)-5-(5-(dimethylcarbamoyl)pyridin-2-yl)-N-(3-fluoro-4-(7-methyl-2,7-diazaspiro[3.5]nonane-2-carboxamido)benzyl)-1-isopropyl-7-methyl-4,5,6,7-tetrahydro-1H-pyrazolo[4,3-c]pyridine-3-carboxamide]"
1,7,"CC(C)n1nc(C(=O)NCc2ccc(NC(=O)N3CCN(C)CC3)cc2)c2c1[C@@H](C)CN(c1ccc(-n3ccccc3=O)cn1)C2 [Example 609, (S)-1-isopropyl-7-methyl-N-(4-(4-methylpiperazine-1-carboxamido)benzyl)-5-(2-oxo-2H-[1,3′-bipyridin]-6′-yl)-4,5,6,7-tetrahydro-1H-pyrazolo[4,3-c]pyridine-3-carboxamide]"
2,17,"CC(C)n1nc(C(=O)NCc2ccc(NC(=O)N3CCN(C)CC3)c(F)c2)c2c1[C@@H](C)CN(c1ccc(-n3ccccc3=O)cn1)C2 [Example 610, (S)-N-(3-fluoro-4-(4-methylpiperazine-1-carboxamido)benzyl)-1-isopropyl-7-methyl-5-(2-oxo-2H-[1,3′-bipyridin]-6′-yl)-4,5,6,7-tetrahydro-1H-pyrazolo[4,3-c]pyridine-3-carboxamide]"
0.2,5,"CC(C)n1nc(C(=O)NCc2ccc(NC(=O)N3CCN(C)CC3)cc2)c2c1[C@@H](C)CN(c1ccc(C(=O)N3Cc4cccnc4C3)cn1)C2 [Example 611, (S)-5-(5-(6,7-dihydro-5H-pyrrolo[3,4-b]pyridine-6-carbonyl)pyridin-2-yl)-1-isopropyl-7-methyl-N-(4-(4-methylpiperazine-1-carboxamido)benzyl)-4,5,6,7-tetrahydro-1H-pyrazolo[4,3-c]pyridine-3-carboxamide]"
0.5,10,"CC(C)n1nc(C(=O)NCc2ccc(NC(=O)N3CCN(C)CC3)c(F)c2)c2c1[C@@H](C)CN(c1ccc(C(=O)N3Cc4cccnc4C3)cn1)C2 [Example 612, (S)-5-(5-(6,7-dihydro-5H-pyrrolo[3,4-b]pyridine-6-carbonyl)pyridin-2-yl)-N-(3-fluoro-4-(4-methylpiperazine-1-carboxamido)benzyl)-1-isopropyl-7-methyl-4,5,6,7-tetrahydro-1H-pyrazolo[4,3-c]pyridine-3-carboxamide]"
0.4,7,"CC(C)n1nc(C(=O)NCc2ccc(NC(=O)N3CCN(C)CC3)cc2)c2c1[C@@H](C)CN(c1ccc(C(=O)N3Cc4cccnc4C3)cc1)C2 [Example 614, (S)-5-(4-(6,7-dihydro-5H-pyrrolo[3,4-b]pyridine-6-carbonyl)phenyl)-1-isopropyl-7-methyl-N-(4-(4-methylpiperazine-1-carboxamido)benzyl)-4,5,6,7-tetrahydro-1H-pyrazolo[4,3-c]pyridine-3-carboxamide]"
2,13,"CC(C)n1nc(C(=O)NCc2ccc(NC(=O)N3CCCN(C)CC3)cc2)c2c1[C@@H](C)CN(c1ccc(C(=O)N(C)C)cn1)C2 [Example 615, (S)-5-(5-(dimethylcarbamoyl)pyridin-2-yl)-1-isopropyl-7-methyl-N-(4-(4-methyl-1,4-diazepane-1-carboxamido)benzyl)-4,5,6,7-tetrahydro-1H-pyrazolo[4,3-c]pyridine-3-carboxamide]"
1,6,"CC(C)n1nc(C(=O)NCc2ccc(NC(=O)N3CCC(N(C)C)CC3)cc2)c2c1[C@@H](C)CN(c1ccc(C(=O)N(C)C)cn1)C2 [Example 616, (S)-N-(4-(4-(dimethylamino)piperidine-1-carboxamido)benzyl)-5-(5-(dimethylcarbamoyl)pyridin-2-yl)-1-isopropyl-7-methyl-4,5,6,7-tetrahydro-1H-pyrazolo[4,3-c]pyridine-3-carboxamide]"
178,502,"CC(C)n1nc(C(=O)NCc2ccc(C(=O)NCC3CCN(C)CC3)cc2)c2c1[C@@H](C)CN(c1ccc(C(=O)N(C)C)cc1)C2 [Example 617, (S)-5-(4-(dimethylcarbamoyl)phenyl)-1-isopropyl-7-methyl-N-(4-(((1-methylpiperidin-4-yl)methyl)carbamoyl)benzyl)-4,5,6,7-tetrahydro-1H-pyrazolo[4,3-c]pyridine-3-carboxamide]"
